From the NIST ThermoML archive (doi:10.1016/j.tca.2017.06.023)

How the values were obtained:
[1] = xn = mol fraction of the nth substance listed; details: 100 kPa, Liquid; for viscosity: Capillary tube (Ostwald / Ubbelohde) method; for speed of sound: Frequency=3 MHz, Sing-around technique in a fixed-path interferometer; for mass density: Vibrating tube method
[2] = refractive index (Na D-line) (dimensionless); xn = mol fraction of the nth substance listed; details: 100 kPa, Liquid, Standard Abbe refractometry

CC(=O)N(C)C [N,N-dimethylethanamide] + CC(C)O
Details	mass density, [1] [kg/m3]	refractive index, [2]	speed of sound, [1] [m/s]	viscosity, [1] [mPa·s]
283.15 K, x1 = 0.0551	803.7	1.38572	1214.1	2.752
283.15 K, x1 = 0.1091	813.5	1.38973	1234.9	2.354
283.15 K, x1 = 0.2113	831.42	1.39698	1271.8	1.896
283.15 K, x1 = 0.3066	847.5	1.40342	1303.6	1.643
283.15 K, x1 = 0.4084	864.09	1.40997	1336.4	1.476
283.15 K, x1 = 0.5049	879.33	1.4159	1366.7	1.392
283.15 K, x1 = 0.6056	894.73	1.42182	1398.1	1.305
283.15 K, x1 = 0.7028	909.13	1.42729	1427.9	1.272
283.15 K, x1 = 0.8024	923.39	1.43267	1458.5	1.246
283.15 K, x1 = 0.8956	936.27	1.43751	1486.3	1.213
283.15 K, x1 = 0.9464	943.08	1.44007	1501.5	1.205
283.15 K, x1 = 1	950.13	1.44273	1516.8	1.168
298.15 K, x1 = 0.0551	791.24	1.37924	1160.6	1.793
298.15 K, x1 = 0.1091	800.93	1.38322	1180.6	1.598
298.15 K, x1 = 0.2113	818.64	1.39042	1215.9	1.355
298.15 K, x1 = 0.3066	834.52	1.3968	1247.4	1.214
298.15 K, x1 = 0.4084	850.94	1.40331	1279.7	1.117
298.15 K, x1 = 0.5049	866.02	1.40919	1309.3	1.057
298.15 K, x1 = 0.6056	881.3	1.41506	1338.8	1.017
298.15 K, x1 = 0.7028	895.59	1.42049	1369.3	0.993
298.15 K, x1 = 0.8024	909.75	1.42581	1399.3	0.977
298.15 K, x1 = 0.8956	922.53	1.43061	1426.5	0.956
298.15 K, x1 = 0.9464	929.3	1.43317	1441.3	0.949
298.15 K, x1 = 1	936.29	1.43579	1453.7	0.93
313.15 K, x1 = 0.0551	778.1	1.37249	1107.6	1.223
313.15 K, x1 = 0.1091	787.72	1.37646	1127.3	1.129
313.15 K, x1 = 0.2113	805.29	1.38365	1162.2	1.008
313.15 K, x1 = 0.3066	821.08	1.39004	1193.5	0.933
313.15 K, x1 = 0.4084	837.39	1.39653	1225.2	0.879
313.15 K, x1 = 0.5049	852.41	1.40242	1254.2	0.849
313.15 K, x1 = 0.6056	867.62	1.40827	1282.9	0.828
313.15 K, x1 = 0.7028	881.85	1.4137	1313.2	0.809
313.15 K, x1 = 0.8024	895.96	1.41903	1342.1	0.795
313.15 K, x1 = 0.8956	908.71	1.42383	1368.5	0.779
313.15 K, x1 = 0.9464	915.46	1.42638	1382.5	0.772
313.15 K, x1 = 1	922.43	1.42901	1393.3	0.764

CC(=O)N(C)C [N,N-dimethylethanamide] + CCC(C)O
Details	mass density, [1] [kg/m3]	refractive index, [2]	speed of sound, [1] [m/s]	viscosity, [1] [mPa·s]
283.15 K, x1 = 0.062	823.15	1.40382	1280.8	4.37
283.15 K, x1 = 0.0926	827.08	1.40505	1288	3.888
283.15 K, x1 = 0.2101	842.13	1.4098	1314.5	2.795
283.15 K, x1 = 0.3084	854.75	1.41377	1337	2.363
283.15 K, x1 = 0.4084	867.81	1.41785	1360.1	2.043
283.15 K, x1 = 0.5009	880.22	1.42168	1382.3	1.833
283.15 K, x1 = 0.6002	893.87	1.42583	1407.2	1.662
283.15 K, x1 = 0.7001	907.96	1.43002	1433	1.518
283.15 K, x1 = 0.8035	922.69	1.43437	1461.3	1.418
283.15 K, x1 = 0.9004	936.39	1.43847	1488.8	1.318
283.15 K, x1 = 0.9572	944.31	1.44089	1505	1.258
283.15 K, x1 = 1	950.13	1.44273	1516.8	1.168
298.15 K, x1 = 0.062	810.77	1.39766	1226.5	2.545
298.15 K, x1 = 0.0926	814.69	1.39889	1233.5	2.345
298.15 K, x1 = 0.2101	829.59	1.40356	1259.8	1.839
298.15 K, x1 = 0.3084	842.09	1.40746	1281.4	1.593
298.15 K, x1 = 0.4084	855.06	1.41148	1303.8	1.427
298.15 K, x1 = 0.5009	867.31	1.41524	1324.9	1.316
298.15 K, x1 = 0.6002	880.82	1.41929	1349	1.233
298.15 K, x1 = 0.7001	894.7	1.42339	1374.8	1.151
298.15 K, x1 = 0.8035	909.23	1.42765	1402.4	1.066
298.15 K, x1 = 0.9004	922.74	1.43165	1428.8	1.02
298.15 K, x1 = 0.9572	930.54	1.43402	1443.3	0.967
298.15 K, x1 = 1	936.29	1.43579	1453.7	0.93
313.15 K, x1 = 0.062	797.87	1.39127	1172.2	1.587
313.15 K, x1 = 0.0926	801.76	1.39248	1179.1	1.501
313.15 K, x1 = 0.2101	816.61	1.39714	1205	1.274
313.15 K, x1 = 0.3084	829.07	1.40103	1226.2	1.146
313.15 K, x1 = 0.4084	841.93	1.40501	1247.8	1.048
313.15 K, x1 = 0.5009	854.12	1.40873	1268.8	0.979
313.15 K, x1 = 0.6002	867.53	1.41274	1292.5	0.927
313.15 K, x1 = 0.7001	881.27	1.4168	1317.7	0.888
313.15 K, x1 = 0.8035	895.63	1.42098	1345.2	0.857
313.15 K, x1 = 0.9004	909.02	1.42492	1370.2	0.819
313.15 K, x1 = 0.9572	916.72	1.42725	1384	0.791
313.15 K, x1 = 1	922.43	1.42901	1393.3	0.764
